Measured values: patent US20130065833A1, “ALKYLATED SP-B PEPTOID COMPOUNDS AND RELATED LUNG SURFACTANT COMPOSITIONS” (Northwestern University, priority 2010, published 2013)

Assay: Pulsating bubble surfactometry (PBS), dynamic-mode cycling at 20 cpm
Assay type: physicochemical
Conditions: 37° C.; for γmax: time point not stated; for % comp (percent SA compression to reach 20 mN m^−1): PBS dynamic-mode, 20 cpm, 100*[(SAmax−SA20)/(SAmax)]
Protocol: The maintenance of good surfactant activity during the dynamic changes in volume or film surface area at the a/l interface was assessed via bubble pulsation in PBS dynamic-mode. This method permits a simplified evaluation of in vitro dynamic film behavior. (Seurynck, S. L., Brown, N. J., Wu, C. W., Germino, K. W., Kohlmeir, E. K., Ingenito, E. P., Glucksberg, M. R., Barron, A. E., and Johnson, M. (2005) J. Appl. Physiol. 99, 624-633.) The γ-surface area (SA) data loops in FIG. 4B for each lipid-peptoid mixture are one representative pulsation cycle at 20 cycles per minute (cpm) after five minutes at 37° C., with bubble expansion in a clockwise loop direction.
The absence of low-γ data in some loops results from the inability of the image analysis system to trace the bubble shape in this regime. The highly compressed state of the film, which enables it to reach low γ, often causes significant bubble shape deformation, eliminating the possibility of tracing the bubble to obtain SA or employing the ellipsoidal Laplace equation to calculate γ. […] Visual, real-time bubble inspection confirmed that significant bubble deformation occurred and that γ reached near-zero in these films.
The lipids DPPC, POPG, and PA were individually dissolved in a chloroform/methanol solution (3/1 [v/v]) to a known concentration (˜2 or 4 mg mL^−1). Single-lipid solutions were then combined by volume at the ratio of DPPC:POPG:PA, 68:22:9 [wt:wt:wt] and to a known total lipid concentration (˜2 mg mL^−1). This well-characterized lipid formulation, the Tanaka Lipids (TL), is considered an adequate mimic of the non-protein (lipid) fraction of LS. The peptides and peptoids were individually dissolved in methanol from a lyophilized powder to a known concentration (1-2 mg mL^−1). For the PBS and LWSB/FM studies, the peptides and peptoids were added to the TL lipid solution at 2.16 mol % (˜10-12 absolute wt %, see Table 1), and the final solution was diluted to ˜1 mg lipid mL^−1. For comparative purposes, the inclusion of peptide/peptoid at 2.16 mol % corresponds to 10 wt % SP-B1-25 relative to the total lipid content (9.1 absolute wt %). Porcine SP-B was dissolved to a known concentration in chloroform/methanol and added to the TL solution at 0.72 mol %, corresponding to roughly 10 wt % of the monomer unit relative to the total lipid content (9.1 absolute wt %). For PBS and LWSB experiments, the standard deviation of the mean (a) was reported.
A commercial pulsating bubble surfactometry (PBS) instrument (General Transco, Largo, FL), modified with a direct, real-time imaging system, which has been previously described and validated in detail, was utilized to obtain both static-mode and dynamic-mode data. Samples were dried to a pellet from chloroform/methanol 3/1 [v/v] using a DNA 120 speedvac (Thermo Electron, Holbrook, N.Y.). The pellet was resuspended in buffer (150 mM NaCl, 10 mM HEPES, 5 mM CaCl2, pH 6.9) to 1.0 mg lipid mL^−1, with a known final volume of 70 μL. Samples were mixed with a pipette 20 times, sonicated with a Fisher Model 60 probe sonicator for two 15-second spurts, and then mixed again 20 times to form a dispersed suspension. Samples were then loaded into a small plastic sample chamber (General Transco) using a modified leak-free methodology. […]

Row | γmax (PBS dynamic-mode in a TL film) [mN m^−1] | % comp (percent SA compression to reach 20 mN m^−1) [%] | γmin (PBS dynamic-mode in a TL film) | Substance
1 | ~35 | 12 | – | Noct2-Nspe6-NLys-Nspe2-NLys2-Nspe4-NLys-Nspe2 [peptoid 3]
2 | 46 | ~26 | near-zero | Nspe8-NLys*-Nspe2-NLys2-Nspe4-NLys-Nspe2 [peptoid 1]
